Activity calls are given as the source filed them.
Experiments:
HEK293 [1] = assay: cells; assay type: functional, cell-based; settings: Homo sapiens
[2] = molecular target: Nucleotide-binding oligomerization domain-containing protein 2 (Homo sapiens, UniProt Q9HC29); assay: inhibition of NOD2-driven NF-kB reporter – cell-based, luminescence, uHTS, HEK293 (AID 1566); assay type: functional
HEK293 [3] = assay: NOD2 signaling inhibitors in MDP-stimulated cells, cell-based, uHTS, luminescence (AID 2001); assay type: functional; settings: Homo sapiens
HEK293 [4] = assay: cells; assay type: functional, cell-based; settings: Homo sapiens; remark: listed apart in the source
HEK293 [5] = assay: inhibition of NOD1-driven NF-kB reporter – cell-based, luminescence, uHTS, primary screen (AID 1578); assay type: functional; settings: Homo sapiens
HEK293 [6] = assay: cells; assay type: functional, cell-based; settings: Homo sapiens; remark: listed apart in the source
[7] = molecular target: T1, Voltage-gated N-type calcium channel alpha-1B subunit/Amyloid beta A4 precursor protein-binding family A member 1 (Homo sapiens, UniProt Q00975+Q02410); assay type: protein assay
T1 sequence (Q00975 whole entry): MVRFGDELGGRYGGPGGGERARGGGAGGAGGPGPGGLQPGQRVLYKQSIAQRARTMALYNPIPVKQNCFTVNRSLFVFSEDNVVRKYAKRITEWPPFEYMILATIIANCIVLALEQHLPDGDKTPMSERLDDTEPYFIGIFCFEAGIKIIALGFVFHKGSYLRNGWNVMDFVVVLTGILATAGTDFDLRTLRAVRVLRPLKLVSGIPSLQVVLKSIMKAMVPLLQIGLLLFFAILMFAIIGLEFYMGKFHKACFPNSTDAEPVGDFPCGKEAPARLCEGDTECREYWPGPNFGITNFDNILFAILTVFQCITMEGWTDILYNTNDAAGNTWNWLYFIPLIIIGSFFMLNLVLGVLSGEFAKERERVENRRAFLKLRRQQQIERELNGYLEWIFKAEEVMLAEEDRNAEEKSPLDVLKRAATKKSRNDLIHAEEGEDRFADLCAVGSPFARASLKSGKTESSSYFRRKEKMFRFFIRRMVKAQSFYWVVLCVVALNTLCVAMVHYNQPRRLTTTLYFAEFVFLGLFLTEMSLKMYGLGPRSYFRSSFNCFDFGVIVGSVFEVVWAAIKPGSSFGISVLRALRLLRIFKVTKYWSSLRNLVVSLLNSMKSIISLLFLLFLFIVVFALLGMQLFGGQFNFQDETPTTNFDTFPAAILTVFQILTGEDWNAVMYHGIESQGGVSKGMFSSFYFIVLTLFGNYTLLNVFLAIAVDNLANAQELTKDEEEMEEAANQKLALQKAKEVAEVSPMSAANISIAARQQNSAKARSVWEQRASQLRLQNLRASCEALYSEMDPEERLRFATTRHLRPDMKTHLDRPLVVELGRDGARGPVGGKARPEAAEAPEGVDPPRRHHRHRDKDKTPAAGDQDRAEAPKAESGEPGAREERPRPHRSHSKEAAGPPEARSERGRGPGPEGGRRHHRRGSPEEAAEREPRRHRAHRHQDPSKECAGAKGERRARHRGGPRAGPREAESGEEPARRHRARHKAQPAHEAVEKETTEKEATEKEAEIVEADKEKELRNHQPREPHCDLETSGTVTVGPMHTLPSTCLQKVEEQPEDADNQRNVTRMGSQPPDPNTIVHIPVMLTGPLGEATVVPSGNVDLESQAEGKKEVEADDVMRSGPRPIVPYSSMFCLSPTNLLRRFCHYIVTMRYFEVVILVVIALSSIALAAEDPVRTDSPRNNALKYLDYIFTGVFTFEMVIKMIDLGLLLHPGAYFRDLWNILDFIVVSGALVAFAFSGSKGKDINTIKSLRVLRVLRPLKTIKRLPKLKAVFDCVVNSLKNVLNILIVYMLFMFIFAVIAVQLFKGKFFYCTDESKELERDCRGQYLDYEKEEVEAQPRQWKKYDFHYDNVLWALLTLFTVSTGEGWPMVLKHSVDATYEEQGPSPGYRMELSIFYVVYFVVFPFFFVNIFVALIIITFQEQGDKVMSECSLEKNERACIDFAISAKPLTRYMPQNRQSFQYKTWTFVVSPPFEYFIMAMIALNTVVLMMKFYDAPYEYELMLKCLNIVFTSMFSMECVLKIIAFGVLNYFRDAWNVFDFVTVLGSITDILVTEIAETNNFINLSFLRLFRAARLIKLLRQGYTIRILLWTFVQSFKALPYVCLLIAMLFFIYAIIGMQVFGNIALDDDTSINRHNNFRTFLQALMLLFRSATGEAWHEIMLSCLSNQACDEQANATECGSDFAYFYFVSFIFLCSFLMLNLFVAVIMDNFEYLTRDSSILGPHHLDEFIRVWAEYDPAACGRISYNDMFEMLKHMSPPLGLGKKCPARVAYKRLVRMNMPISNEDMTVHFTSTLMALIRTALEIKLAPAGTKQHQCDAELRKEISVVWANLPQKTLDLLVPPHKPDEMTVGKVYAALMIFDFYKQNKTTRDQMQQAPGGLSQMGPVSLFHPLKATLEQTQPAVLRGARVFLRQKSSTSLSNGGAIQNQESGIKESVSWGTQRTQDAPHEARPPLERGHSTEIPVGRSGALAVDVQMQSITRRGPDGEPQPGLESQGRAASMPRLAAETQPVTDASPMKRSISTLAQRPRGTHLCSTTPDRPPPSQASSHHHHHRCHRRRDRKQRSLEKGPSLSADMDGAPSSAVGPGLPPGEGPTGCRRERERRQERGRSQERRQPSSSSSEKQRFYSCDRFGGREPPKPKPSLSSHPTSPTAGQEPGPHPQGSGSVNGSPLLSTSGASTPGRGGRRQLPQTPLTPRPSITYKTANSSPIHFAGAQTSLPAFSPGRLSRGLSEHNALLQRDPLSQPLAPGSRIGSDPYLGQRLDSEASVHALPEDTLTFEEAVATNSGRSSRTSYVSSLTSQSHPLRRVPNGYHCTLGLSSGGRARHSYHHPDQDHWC
T1 sequence (Q02410 whole entry): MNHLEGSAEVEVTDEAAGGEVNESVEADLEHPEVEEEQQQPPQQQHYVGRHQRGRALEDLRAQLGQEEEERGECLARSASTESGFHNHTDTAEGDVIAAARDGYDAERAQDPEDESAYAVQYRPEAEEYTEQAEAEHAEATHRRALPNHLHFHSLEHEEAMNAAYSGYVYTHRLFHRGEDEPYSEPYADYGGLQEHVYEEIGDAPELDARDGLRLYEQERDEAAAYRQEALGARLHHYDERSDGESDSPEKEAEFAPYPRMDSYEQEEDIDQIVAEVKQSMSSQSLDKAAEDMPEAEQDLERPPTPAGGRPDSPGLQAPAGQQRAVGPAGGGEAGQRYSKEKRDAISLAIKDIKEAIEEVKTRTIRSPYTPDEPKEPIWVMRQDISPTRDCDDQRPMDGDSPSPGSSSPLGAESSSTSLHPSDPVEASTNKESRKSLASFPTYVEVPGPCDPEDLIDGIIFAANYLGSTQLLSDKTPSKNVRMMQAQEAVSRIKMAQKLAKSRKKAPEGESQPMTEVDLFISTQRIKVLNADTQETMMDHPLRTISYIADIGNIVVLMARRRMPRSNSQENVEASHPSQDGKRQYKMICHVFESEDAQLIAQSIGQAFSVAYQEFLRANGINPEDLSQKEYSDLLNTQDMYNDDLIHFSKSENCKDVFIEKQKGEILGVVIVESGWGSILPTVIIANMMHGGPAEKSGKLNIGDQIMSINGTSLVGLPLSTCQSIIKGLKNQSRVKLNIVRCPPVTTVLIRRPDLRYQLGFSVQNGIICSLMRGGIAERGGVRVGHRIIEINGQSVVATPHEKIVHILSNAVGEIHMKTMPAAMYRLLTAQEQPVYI

[8] = molecular target: T1, Voltage-gated N-type calcium channel alpha-1B subunit/Amyloid beta A4 precursor protein-binding family A member 1; assay type: protein assay; remark: listed apart in the source
Vero = assay: cells; assay type: functional; settings: Chlorocebus sabaeus
Melanocortin receptor 4 = Melanocortin receptor 4 (Homo sapiens, UniProt P32245); assay type: functional, cell-based;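 further: Cell-based assay with luminescence read-out, confirmatory dose-response testing for agonist activity of biased ligands at MC4R; human U2OS cells with tagged receptor and beta-arrestin; potency of agonists that increase receptor coupling to beta-arrestin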
Sequence of Melanocortin receptor 4 (P32245 whole entry): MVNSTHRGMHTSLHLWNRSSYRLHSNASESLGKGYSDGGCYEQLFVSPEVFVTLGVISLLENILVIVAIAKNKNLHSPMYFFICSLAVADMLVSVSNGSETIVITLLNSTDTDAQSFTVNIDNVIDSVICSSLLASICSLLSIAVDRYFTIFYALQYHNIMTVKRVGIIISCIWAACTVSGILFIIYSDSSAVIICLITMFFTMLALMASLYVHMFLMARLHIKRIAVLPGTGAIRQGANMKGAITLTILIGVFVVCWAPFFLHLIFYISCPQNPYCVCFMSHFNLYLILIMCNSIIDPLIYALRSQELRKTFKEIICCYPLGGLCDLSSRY

[9] = molecular target: Eukaryotic translation initiation factor 4E (Mus musculus, UniProt P63073); assay: blockers of eIF4G binding by eIF4E – biochemical, TR-FRET, dose response (AID 855); assay type: functional;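 further: potency for disrupting eIF4E binding to eIF4GI seen as loss of FRET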
Sequence of Eukaryotic translation initiation factor 4E (P63073 whole entry): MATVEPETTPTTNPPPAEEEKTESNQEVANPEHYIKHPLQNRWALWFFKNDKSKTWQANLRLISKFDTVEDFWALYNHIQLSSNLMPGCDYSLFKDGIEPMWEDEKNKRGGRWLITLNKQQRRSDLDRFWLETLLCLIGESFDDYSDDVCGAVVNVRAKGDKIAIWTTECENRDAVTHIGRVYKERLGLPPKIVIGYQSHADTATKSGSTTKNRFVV

[10] = molecular target: T2, Short transient receptor potential channel 4 (Mus musculus, UniProt Q9QUQ5); assay: block of DAMGO-driven TRPC4 calcium entry – cell-based, HEK293 TRPC4/mu-opioid, Fluo-4 calcium, dose response (AID 434942); assay type: functional;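 further: potency of inhibitors blocking the TRPC4 calcium response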
T2 sequence (Q9QUQ5 whole entry): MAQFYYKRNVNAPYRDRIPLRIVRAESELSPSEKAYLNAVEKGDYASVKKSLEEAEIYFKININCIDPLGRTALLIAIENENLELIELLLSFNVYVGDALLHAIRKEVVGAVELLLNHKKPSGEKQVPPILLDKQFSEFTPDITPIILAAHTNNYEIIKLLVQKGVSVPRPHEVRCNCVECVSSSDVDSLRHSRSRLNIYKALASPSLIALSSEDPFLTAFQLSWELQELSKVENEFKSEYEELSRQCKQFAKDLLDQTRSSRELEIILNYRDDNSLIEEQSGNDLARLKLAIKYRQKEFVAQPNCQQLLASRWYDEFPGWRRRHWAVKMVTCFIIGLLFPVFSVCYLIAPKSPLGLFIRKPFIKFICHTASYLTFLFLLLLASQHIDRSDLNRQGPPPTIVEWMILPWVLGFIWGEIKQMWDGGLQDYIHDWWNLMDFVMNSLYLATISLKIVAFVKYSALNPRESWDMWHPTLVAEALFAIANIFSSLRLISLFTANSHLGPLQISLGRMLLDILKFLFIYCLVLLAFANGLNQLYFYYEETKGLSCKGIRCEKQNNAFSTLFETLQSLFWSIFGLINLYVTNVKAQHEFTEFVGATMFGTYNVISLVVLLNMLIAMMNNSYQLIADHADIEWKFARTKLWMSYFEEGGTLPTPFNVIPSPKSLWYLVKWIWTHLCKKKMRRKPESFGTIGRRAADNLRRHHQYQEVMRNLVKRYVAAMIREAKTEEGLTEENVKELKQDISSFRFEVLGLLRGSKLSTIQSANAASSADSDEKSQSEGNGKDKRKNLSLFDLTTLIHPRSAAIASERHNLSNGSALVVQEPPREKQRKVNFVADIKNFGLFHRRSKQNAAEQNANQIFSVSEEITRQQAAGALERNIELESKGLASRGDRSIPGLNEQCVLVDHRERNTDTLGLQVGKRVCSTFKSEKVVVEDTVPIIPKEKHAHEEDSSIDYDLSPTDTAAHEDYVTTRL

[11] = molecular target: T3, Carboxy-terminal domain RNA polymerase II polypeptide A small phosphatase 1 (Homo sapiens, UniProt Q9GZU7); assay: CTDSP1 inhibitors, concentration-response, biochemical, absorbance readout, ultra-high-throughput screen actives (AID 540297); assay type: functional
T3 sequence (Q9GZU7 whole entry): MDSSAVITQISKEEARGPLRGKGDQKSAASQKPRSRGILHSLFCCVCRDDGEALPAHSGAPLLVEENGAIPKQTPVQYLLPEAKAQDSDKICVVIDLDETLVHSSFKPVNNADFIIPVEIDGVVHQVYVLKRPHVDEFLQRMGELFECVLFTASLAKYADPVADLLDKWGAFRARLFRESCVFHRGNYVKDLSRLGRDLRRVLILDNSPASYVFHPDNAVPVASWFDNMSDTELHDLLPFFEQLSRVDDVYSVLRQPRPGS

Sequence of Nucleotide-binding oligomerization domain-containing protein 2 (Q9HC29 whole entry, the tested form may be a part): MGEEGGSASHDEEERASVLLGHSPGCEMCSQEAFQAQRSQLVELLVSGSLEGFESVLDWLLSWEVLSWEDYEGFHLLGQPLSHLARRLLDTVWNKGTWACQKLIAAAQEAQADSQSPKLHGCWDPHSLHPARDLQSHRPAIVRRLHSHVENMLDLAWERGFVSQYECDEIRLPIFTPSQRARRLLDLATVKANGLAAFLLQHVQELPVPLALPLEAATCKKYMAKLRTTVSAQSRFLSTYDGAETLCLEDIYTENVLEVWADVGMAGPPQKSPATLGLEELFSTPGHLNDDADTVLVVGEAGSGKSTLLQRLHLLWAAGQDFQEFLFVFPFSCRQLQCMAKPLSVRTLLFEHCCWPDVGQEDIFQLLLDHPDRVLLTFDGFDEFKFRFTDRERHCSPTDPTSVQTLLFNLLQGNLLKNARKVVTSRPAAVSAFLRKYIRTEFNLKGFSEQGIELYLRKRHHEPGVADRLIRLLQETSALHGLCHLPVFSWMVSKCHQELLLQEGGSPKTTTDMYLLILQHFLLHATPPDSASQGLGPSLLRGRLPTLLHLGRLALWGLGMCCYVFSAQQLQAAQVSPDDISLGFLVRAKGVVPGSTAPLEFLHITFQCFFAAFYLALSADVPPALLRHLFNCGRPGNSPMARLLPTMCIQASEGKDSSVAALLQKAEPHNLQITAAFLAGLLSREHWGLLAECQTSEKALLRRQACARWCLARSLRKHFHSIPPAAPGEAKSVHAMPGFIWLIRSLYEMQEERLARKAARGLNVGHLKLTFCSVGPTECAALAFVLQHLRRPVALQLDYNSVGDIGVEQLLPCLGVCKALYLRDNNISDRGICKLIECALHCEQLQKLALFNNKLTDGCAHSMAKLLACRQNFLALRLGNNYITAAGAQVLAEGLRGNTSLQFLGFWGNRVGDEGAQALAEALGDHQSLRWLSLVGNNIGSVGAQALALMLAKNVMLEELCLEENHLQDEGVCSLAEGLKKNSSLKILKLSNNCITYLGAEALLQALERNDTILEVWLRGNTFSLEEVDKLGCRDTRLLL

**Q.** `CCOC(=O)/C=C/C(=O)Nc1ccc(S(=O)(=O)N(C)c2ccccc2)cc1` was tested. Which IC50 (HEK293 [1]) did it give?
**A.** Its IC50 is > 20 µM (inactive).

**Q.** What about the EC50 [2] of the same compound?
**A.** Its EC50 is > 20 µM (inactive).

**Q.** And the IC50 (HEK293 [3])?
**A.** The IC50 was 4.98 µM (active).

**Q.** What about the IC50 (HEK293 [4]) of the same compound?
**A.** Its IC50 is 5.26 µM (active).

**Q.** And the EC50 (HEK293 [5])?
**A.** Its EC50 is 4.41 µM (active).

**Q.** And the IC50 (HEK293 [6])?
**A.** Its IC50 is 16.3 µM (active).

**Q.** What does the source list for `COC(=O)c1ccccc1NC(=O)c1cc(-c2ccco2)on1`?
**A.** IC50 [7]: 13.7 µM (active); IC50 [8]: > 50 µM (inactive)

**Q.** For `Cc1ccc(C(=O)Cn2c(C(=O)/C=C/c3ccccc3)nc3ccccc32)cc1`, which CC50 (Vero) is on record?
**A.** The CC50 was 16.4 µM (active).

**Q.** And the EC50 (Melanocortin receptor 4)?
**A.** Its EC50 is > 89.2 µM (inactive).

**Q.** Which IC50 [9] does the source give for `CCN(CC)S(=O)(=O)c1ccc(NC(=O)c2cc(C(=O)OC)cc([N+](=O)[O-])c2)cc1` here?
**A.** The IC50 was > 64 µM (inactive).

**Q.** `CC(=O)Nc1ccc(NC(=O)c2cc(-c3ccc(C)c(C)c3O)[nH]n2)cc1` was tested. Which IC50 [7] did it give?
**A.** Its IC50 is 23.2 µM (active).

**Q.** What about the IC50 [8] of the same compound?
**A.** The IC50 was > 50 µM (inactive).

**Q.** With `O=C(O)c1cc(-c2ccccc2)n(-c2ccccc2C(=O)O)n1` as the compound, how does the IC50 [9] read?
**A.** Its IC50 is > 64 µM (inactive).

**Q.** For `OCC(Cc1ccccc1)NCc1ccccc1C(F)(F)F` (stereo not drawn), which EC50 [10] is on record?
**A.** Its EC50 is 8.41 µM (active).

**Q.** With `CC(C)NCC(O)COCCOc1ccc(C(C)(C)C)cc1` (stereo not drawn) as the compound, how does the EC50 [10] read?
**A.** Its EC50 is 1.06 µM (active).

**Q.** Which results are given for `COc1ccccc1N1CCN(c2ncnc3sc(C)c(-c4ccccc4)c23)CC1`?
**A.** IC50 (HEK293 [1]): 17.2 µM (active); EC50 [2]: 11.5 µM (active); IC50 (HEK293 [3]): 6.98 µM (active); IC50 (HEK293 [4]): 6.68 µM (active); EC50 (HEK293 [5]): 5.48 µM (active); IC50 (HEK293 [6]): > 20 µM (inactive)

**Q.** With `O=C(COC(=O)c1cc(-c2ccccc2Cl)nc2ccccc12)Nc1ncc(C(F)(F)F)cc1Cl` as the compound, how does the IC50 [11] read?
**A.** The IC50 was 39 µM (active).

Source: ChEMBL document CHEMBL1201862, “PubChem BioAssay data set” (2004)
